Experimental data taken from the CheMixHub ionic liquid set.

Experiment: xn = mol fraction of the nth substance listed

CC(=O)[O-].CCCC[n+]1ccn(C)c1 + O
Conditions | viscosity [mPa·s]
293.15 K, 100 kPa, x2 = 0.1843 | 559
293.15 K, 100 kPa, x2 = 0.3889 | 298
293.15 K, 100 kPa, x2 = 0.5951 | 124.3
293.15 K, 100 kPa, x2 = 0.8004 | 32.1
298.15 K, 100 kPa, x2 = 0 | 595
298.15 K, 101 kPa, x1 = 0.03479 | 2.23
298.15 K, 101 kPa, x1 = 0.03897 | 2.35
298.15 K, 101 kPa, x1 = 0.04311 | 2.66
303.15 K, 100 kPa, x2 = 0 | 400
303.15 K, 100 kPa, x2 = 0.1843 | 262
303.15 K, 100 kPa, x2 = 0.3889 | 150
303.15 K, 100 kPa, x2 = 0.5951 | 68.8
303.15 K, 100 kPa, x2 = 0.8004 | 19.69
303.15 K, 101 kPa, x1 = 0.03479 | 2.18
303.15 K, 101 kPa, x1 = 0.03897 | 2.29
303.15 K, 101 kPa, x1 = 0.04311 | 2.63
308.15 K, 101 kPa, x1 = 0.03479 | 2.16
308.15 K, 101 kPa, x1 = 0.03897 | 2.25
308.15 K, 101 kPa, x1 = 0.04311 | 2.56
313.15 K, 100 kPa, x2 = 0 | 200
313.15 K, 100 kPa, x2 = 0.0171 | 138.1
313.15 K, 100 kPa, x2 = 0.1843 | 138.2
313.15 K, 100 kPa, x2 = 0.3889 | 85
313.15 K, 100 kPa, x2 = 0.5951 | 41.9
313.15 K, 100 kPa, x2 = 0.8004 | 13.12
313.15 K, 101 kPa, x1 = 0.03479 | 2.13
313.15 K, 101 kPa, x1 = 0.03897 | 2.22
313.15 K, 101 kPa, x1 = 0.04311 | 2.49
318.15 K, 101 kPa, x1 = 0.03479 | 1.74
318.15 K, 101 kPa, x1 = 0.03897 | 2.11
318.15 K, 101 kPa, x1 = 0.04311 | 2.29
323.15 K, 100 kPa, x2 = 0 | 111.7
323.15 K, 100 kPa, x2 = 0.1843 | 79.7
323.15 K, 100 kPa, x2 = 0.3889 | 51.8
323.15 K, 100 kPa, x2 = 0.5951 | 26.97
323.15 K, 100 kPa, x2 = 0.8004 | 9.09
323.15 K, 101 kPa, x1 = 0.03479 | 1.58
323.15 K, 101 kPa, x1 = 0.03897 | 2.07
323.15 K, 101 kPa, x1 = 0.04311 | 2.26
328.15 K, 101 kPa, x1 = 0.03479 | 1.51
328.15 K, 101 kPa, x1 = 0.03897 | 1.91
328.15 K, 101 kPa, x1 = 0.04311 | 2.02
333.15 K, 100 kPa, x2 = 0 | 67.3
333.15 K, 100 kPa, x2 = 0.01197 | 48.8
333.15 K, 100 kPa, x2 = 0.1843 | 48.6
333.15 K, 100 kPa, x2 = 0.3889 | 33.6
333.15 K, 100 kPa, x2 = 0.5951 | 18.26
333.15 K, 101 kPa, x1 = 0.03479 | 1.24
333.15 K, 101 kPa, x1 = 0.03897 | 1.86
333.15 K, 101 kPa, x1 = 0.04311 | 1.97
343.15 K, 100 kPa, x2 = 0 | 41.6
343.15 K, 100 kPa, x2 = 0.1843 | 32.4
343.15 K, 100 kPa, x2 = 0.3889 | 23.31
343.15 K, 100 kPa, x2 = 0.5951 | 13
353.15 K, 100 kPa, x2 = 0 | 27.86
353.15 K, 100 kPa, x2 = 0.1843 | 22.25
353.15 K, 100 kPa, x2 = 0.3889 | 16.58
353.15 K, 100 kPa, x2 = 0.5951 | 9.64
363.15 K, 100 kPa, x2 = 0 | 19.87
363.15 K, 100 kPa, x2 = 0.1843 | 15.93
363.15 K, 100 kPa, x2 = 0.5951 | 7.37
373.15 K, 100 kPa, x2 = 0 | 14.82
373.15 K, 100 kPa, x2 = 0.1843 | 11.94

CC(O)C(=O)[O-].CN(C)CCOCC[NH+](C)C + O
Conditions | viscosity [mPa·s]
298.15 K, 100 kPa, x1 = 0.06665 | 2.86
